*1 amine or outer side, *2 acyl side, *3 side chain or, on linkers, in order; H or OH if unused. Where a SMILES comes first, the peptide text is derived from it. Side-chain parts run from the residue outwards. [ ]: non-standard residue; d: D form. dPhe(4-NH2) = Nc1ccc(C[C@@H](N)C(=O)O)cc1; dPhe(4-Cl) = N[C@H](Cc1ccc(Cl)cc1)C(=O)O; Phe(4-NH2) = Nc1ccc(C[C@H](N)C(=O)O)cc1; d2Nal = N[C@H](Cc1ccc2ccccc2c1)C(=O)O; Lys(iPr) = CC(C)NCCCC[C@H](N)C(=O)O; dDap = NC[C@@H](N)C(=O)O; CO = O=C([*:1])[*:2]
Experiments:
[1] = examination of injected rats for tolerance and gelling at the point of injection; assay type: in vivo; details: 50 μg per rat sc
LH secretion = assay: in vivo suppression of circulating LH levels in castrated male Sprague-Dawley rats treated subcutaneously; parameters: species or system rat; details: for in vivo suppression of LH secretion compared with a reference peptide: dosage not printed at the place; for suppression of LH compared with a reference peptide: standard in vivo rat test as in Example 1
Method: The peptide is hereinafter referred to as Peptide No. 1 and is assayed in vivo to determine its effectiveness to suppress secretion of LH in rats. Measurement of circulating LH levels in castrated male Sprague-Dawley rats treated subcutaneously with the peptide is carried out as reported in C. Rivier et al. Biol. Reproduc., 1983. 29, 374-378. The peptides are first dissolved at a concentration of 1.0 or 10 mg/ml in bacteriostatic water and then further diluted in 0.04M phosphate buffer containing 0.1% BSA. Subsequent dilutions are made in phosphate buffer. The peptides are injected sc, and blood samples (300 μl) are collected under metotane anesthesia. Sera (50 […]) are tested for LH levels in duplicate using reagents provided by the National Pituitary and Hormone Distribution Program of the NIDDK. […] However, 96 hours following injection, the LH levels are only about 75% of those of the Acyline-injected rats.

[2] = hydrophilicity by RP-HPLC retention time, TEAP pH 7.0 gradient; assay type: physicochemical; details: 40% to 70% Buffer B over 30 minutes
Method: Hydrophilicity is tested by measuring retention time using RP-HPLC with a gradient of 40% Buffer B to 70% Buffer B over 30 minutes, with Buffer A being TEAP pH 7.0 and Buffer B being 70% CH3 CN and 30% Buffer A at pH 7.0.

[3] = dosage of 50 micrograms per rat sc

Compound | hydrophilicity compared with a reference peptide [2] | gelling at the point of injection [1] | tolerance of the peptide in injected rats [1] | in vivo suppression of LH secretion compared with a reference peptide (LH secretion) | duration of action, as classed in words (LH secretion; [3]) | suppression of LH compared with a reference peptide (LH secretion; [3])
CNC(=O)NC[C@@H](NC(=O)[C@@H](Cc1ccc(Cl)cc1)NC(=O)[C@@H](Cc1ccc2ccccc2c1)NC(C)=O)C(=O)N[C@@H](CO)C(=O)N[C@@H](Cc1ccc(NC(C)=O)cc1)C(=O)N[C@H](Cc1ccc(NC(C)=O)cc1)C(=O)N[C@@H](CC(C)C)C(=O)N[C@@H](CCCCNC(C)C)C(=O)N1CCC[C@H]1C(=O)N[C@H](C)C(N)=O [Peptide No. 1, Ac-D-2Nal-(4Cl)D-Phe-D-Dpr(methylcarbamoyl)-Ser-4Aph (acetyl)-D-4Aph(acetyl)-Leu-Lys(isopropyl)-Pro-D-Ala-NH2] (Ac-[d2Nal][dPhe(4-Cl)][dDap]([CO-NHMe])S[Phe(4-NH2)](Ac)[dPhe(4-NH2)](Ac)L[Lys(iPr)]P[dA]-NH2) |  | no significant gelling at the point of injection being detectable | very well tolerated |  |  | 
Ac-β-D-2Nal-D-4Cpa-D-Dpr(methylcarbamoyl)-Ser-4Aph(Hor)-D-Aph(Hor)-Leu-Lys(isopropyl)-Pro-D-Ala-NH2 [Example 5E] | more hydrophilic than Acyline |  |  |  | long-acting | substantially as active as Acyline in suppressing LH level at 1, 2 and 3 days

Further lines, with some results ahead:

hydrophilicity compared with a reference peptide [2] | Compound | gelling at the point of injection [1] | tolerance of the peptide in injected rats [1] | in vivo suppression of LH secretion compared with a reference peptide (LH secretion) | duration of action, as classed in words (LH secretion; [3]) | suppression of LH compared with a reference peptide (LH secretion; [3])
more hydrophilic than Antide | Ac-D-2Nal-D-4Cpa-D-Dpr(methylcarbamoyl)-Ser-4Aph(Gab)(atz)-D-4Aph(Gab)(atz)-Leu-ILys-Pro-D-Ala-NH2 [Peptide No. 5A] |  |  | longer duration of in vivo suppression of LH secretion than Acyline |  | 
more hydrophilic than Antide | Ac-D-2Nal-D-4Cpa-D-Dpr(methylcarbamoyl)-Ser-4Aph(β-Ala)(atz)-D-4Aph(β-Ala)(atz)-Leu-ILys-Pro-D-Ala-NH2 [Peptide No. 5B] |  |  | longer duration of in vivo suppression of LH secretion than Antide |  | 
more hydrophilic than Acyline | Ac-β-D-2Nal-D-4Cpa-Gln-Ser-4Aph(hydroorotyl)-D-4Amf(methylcarbamoyl)- Leu-Lys(isopropyl)-Pro-D-Ala-NH2 [Example 8F] |  |  |  |  | substantially as effective as Acyline for 3 days
